According to US20200390754A1, “METHODS OF ADMINISTERING TOLPERISONE” (Neurana Pharmaceuticals, Inc., priority 2017, published 2020):

Legend:
[1] = tested on: male and female healthy volunteers; test: Country Vigilance-Divided Attention (CVDA) driving scenario on the CRCDS-MiniSim driving simulator; settings: for Lane Exceedance (extent of driving outside of lanes) / Total Collisions: Tolperisone 450 mg, Cyclobenzaprine 30 mg, TID; for SDLP in driving simulation compared to placebo (words, FIG. 1): primary endpoint; for Reaction time on the divided attention test: Day 1, compared to placebo (placebo or cyclobenzaprine)
Procedure: Methodology: This was a randomized, placebo-controlled, multiple-dose 3-way cross-over study of the safety and cognitive effects of multiple doses of 150 mg tolperisone film-coated tablets (prepared according to methods described and referred to herein) administered three times daily (TID) in 31 male and female healthy volunteers. […] Subjects received 3 days of each treatment over three treatment periods. Subject participation was approximately 3 weeks as outpatients with 3 days each week as overnight clinic participants. Subjects were screened within 28 days prior to Treatment Period 1 (Visit 2) for eligibility for participation in the study. Subjects who met all inclusion/exclusion criteria were admitted to the clinic on Day 1 to be evaluated for continued eligibility. Subjects performed a practice trial with the driving simulator and the cognitive function test. Subjects were dosed on the morning of Day 1. Approximately one hour after the […] dose on Day 1, subjects were administered the cognitive test, followed by the driving simulator examination. On the morning of Day 2, prior to dosing, subjects were re-administered the cognitive test and driving examination to assess residual next day effects. Subjects repeated cognitive testing and the driving examination on the morning of Day 3, after administration of the AM study medication, to evaluate the cumulative effects of 3 days of dosing. Subjects were discharged on Day 3 with instructions to return to the clinic on […] to repeat the above procedure with the second and third treatments. A follow-up phone call was conducted 1 week (±3 days) following discharge from the clinic on Day 17 to assess for continued safety. The total duration of study participation was approximately 4 weeks (range 4-8 weeks), including Screening and Follow-up.
The pharmacodynamic measures included simulated driving performance as measured by SDLP using the Cognitive Research Corporation Driving Simulator-MiniSim (CRCDS-MiniSim), the Karolinska Sleepiness Scale, the CogScreen Symbol Digit Coding (SDC) test, a self-perceived safety to drive question, the Visual Analog Scale (VAS) to assess subject's motivation and self-appraisal of their driving performance, and an assessment of the relationship between single-dose plasma drug levels and driving performance. Blood samples for the determination of plasma tolperisone concentrations were drawn prior to each AM dosing on Days 1-3, 8-10, 15-17 and post-driving test (15-30 minutes after the drive) on Days 1, 8, and 15. Blood samples collected post-driving test on Days 3, 10, and 17 were drawn between 1.5 and 2 hours after the start of the drive (approximately 10:30 AM to 11:00 AM). Safety was assessed by the monitoring and recording of adverse events, vital sign measurements, clinical laboratory abnormalities, electrocardiograms (ECGs), pregnancy tests, and physical examinations.
The primary endpoint, SDLP, was analyzed using a mixed-model, repeated measures with fixed effects for sequence, period, and treatment, with repeated observations for subjects. An unstructured covariance structure and Kenward-Roger degrees of freedom was used. […] In addition, pair-wise within subject differences in SDLP greater than 4.4 cm in absolute value (equal to the previously found difference between placebo and 0.05% Blood Alcohol Content (BAC) for the CRCDS) were compared using McNemar's test. Pair-wise within subject differences in SDLP were also tested for symmetry about […] using the maximally selected McNemar test. P-values for significance testing of period and sequence effects are also provided. Pair-wise comparisons (hypothesis tests) of differences in least squares means, and 95% confidence intervals on differences will be provided for:
A 62.1 mile (100 km), monotonous, two-lane highway driving task that includes a secondary visual vigilance task (DA).

[2] = tested on: male and female healthy volunteers; test: Safety: treatment emergent adverse events; assay type: in vivo, human; settings: for Treatment Emergent Adverse Events: Cardiac / Treatment Emergent Adverse Events: Gastrointestinal Disorders / Treatment Emergent Adverse Events: General: Sluggishness / Treatment Emergent Adverse Events: Nervous System Disorders, Attention / Treatment Emergent Adverse Events: Nervous System Disorders, Dizziness / Treatment Emergent Adverse Events: Nervous System Disorders, Headache / Treatment Emergent Adverse Events: Nervous System Disorders, Lethargy / Treatment Emergent Adverse Events: Nervous System Disorders, Somnolence / Treatment Emergent Adverse Events: Psychiatric (Insomnia) / Treatment Emergent Adverse Events: Respiratory / Treatment Emergent Adverse Events: Skin: Tolperisone 450 mg, Cyclobenzaprine 30 mg; for number of Treatment Emergent Adverse Events (TEAEs) reported: n per treatment, 3 days of each treatment
Procedure: (§1) Subjects were dosed on the morning of Day 1.
Safety analysis was based on the safety population. Safety measures were summarized using descriptive statistics and listed for each subject. MedDRA thesaurus was used to map adverse events verbatim to preferred terms and body systems. WHOdrug thesaurus (Sep. 1, 2016) was used to map prior medication and concomitant medication verbatim to preferred terms and ATC Class.
The Principal Investigator was responsible for the monitoring of subjects' safety and reporting of all adverse events (AEs) and serious adverse events (SAEs). The study personnel reviewed subject-volunteered information related to subjective complaints, and reviewed all laboratory findings and queried the subject specifically for visits requiring hospitalization, procedures, laboratory follow-up, or unscheduled visits to see their physician. Each trial subject was questioned about AEs during treatment with study drug. All AEs were documented in the subject's source documents as well as on the appropriate case report form (CRF). The Investigator assessed and recorded any AE in detail on the AE CRF pages including a description of the event, the date of onset, severity, time course, duration and outcome, relationship of the AE to study drug, and an alternate etiology for events not considered “probably” related to study drug and any actions taken.

[3] = tested on: male and female healthy volunteers; test: Karolinska Sleepiness Scale (KSS) test; assay type: in vivo, human; settings: for Karolinska Sleepiness Scale (KSS): Tolperisone 450 mg, Cyclobenzaprine 30 mg, TID
Procedure: as §1
The Karolinska Sleepiness Scale (KSS) was used to assess subjective level of sleepiness. This is a subject self-report measure of situational sleepiness and provides an assessment of alertness/sleepiness at a particular point in time. […] Subjects indicated their level of alertness versus sleepiness according to the following scale:
The KSS assessment was performed immediately before and after the simulated driving test Subjects self-reported their KSS assessments and the scores were recorded in the case report form.

[4] = tested on: male and female healthy volunteers; test: Digit Symbol Substitution Test (CogScreen Symbol Digit Coding); assay type: in vivo, human; settings: Tolperisone 450 mg, Cyclobenzaprine 30 mg, TID
Procedure: as §1
This test is used to measure attention, visual scanning, working memory, and speed of information processing. SDC is a computer analogue of the conventional symbol-substitution task found in the WAIS-R Digit Symbol subtest and the Symbol Digit Modalities Test. Details of the use of the SDC are provided in the CogScreen® Examiner Manual, CogScreen LLC, 2016. CogScreen SDC endpoints include: • Number of correct responses; • Response Accuracy; and • Standard deviation of reaction time.

| Compound | Average speed compared to placebo ([1]; in vivo) | Divided attention: number of Commission Errors compared to placebo ([1]; in vivo) | Divided attention: number of Correct Responses compared to placebo ([1]; in vivo) | Divided attention: number of Omission Errors ([1]; in vivo) | Total Collisions compared to placebo ([1]; in vivo) | SDLP in driving simulation compared to placebo (words, FIG. 1) [1] | Treatment Emergent Adverse Events: Cardiac [2] | Treatment Emergent Adverse Events: Gastrointestinal Disorders [2] | Treatment Emergent Adverse Events: General: Sluggishness [2] | Treatment Emergent Adverse Events: Nervous System Disorders, Attention [2] | Treatment Emergent Adverse Events: Nervous System Disorders, Dizziness [2] | Treatment Emergent Adverse Events: Nervous System Disorders, Headache [2] | Treatment Emergent Adverse Events: Nervous System Disorders, Lethargy [2] | Treatment Emergent Adverse Events: Nervous System Disorders, Somnolence [2] | Treatment Emergent Adverse Events: Psychiatric (Insomnia) [2] | Treatment Emergent Adverse Events: Respiratory [2] | Treatment Emergent Adverse Events: Skin [2] | number of Treatment Emergent Adverse Events (TEAEs) reported [2] | Karolinska Sleepiness Scale (KSS) ([3]; Day 1 (at Tmax)) | Karolinska Sleepiness Scale (KSS) ([3]; Next Day Residual) | also measured |
| --- | --- | --- | --- | --- | --- | --- | --- | --- | --- | --- | --- | --- | --- | --- | --- | --- | --- | --- | --- | --- | --- |
| CN(C)CCC=C1c2ccccc2C=Cc2ccccc21 [Cyclobenzaprine, cyclobenzaprine] | did not differ significantly | non-significant | no significant effect | no increase | no significant increase | significantly impaired effect | 1 | 4 | 1 | 0 | 3 | 0 | 1 | 10 | 1 | 0 | 0 | 21 | 5.5 | 4.1 | Lane Exceedance Maximum and Duration of Exceedance compared to placebo ([1]; Cyc: Days 1 and 2, Tol: any time-point): significantly worse; Lane Exceedance (extent of driving outside of lanes) ([1]; Day 1 (at Tmax)): 3.6; Total Collisions ([1]; Day 1 (at Tmax)): 1.6; Speedings Ratio compared to placebo ([1]; Day 2 and 3): no significant effect; Lane Exceedance (extent of driving outside of lanes) ([1]; Next Day Residual): 3.2; Total Collisions ([1]; Next Day Residual): 0.4; Lane Exceedance (extent of driving outside of lanes) ([1]; Steady State): 2.9; Total Collisions ([1]; Steady State): 0.1; severe AE ([2]; in vivo): one severe AE of dizziness; KSS subjective sleepiness ([3]; Day 1): significantly more subjective sleepiness; KSS subjective sleepiness ([3]; Day 2 or Day 3): did not report feeling more sleepy; Karolinska Sleepiness Scale (KSS) ([3]; Steady State): 3.8; Symbol Digit Coding (SDC) Cognitive Research Version ([4]; Day 1 (at Tmax)): 66.4; Symbol Digit Coding (SDC) Cognitive Research Version ([4]; Next Day Residual): 66.7; Symbol Digit Coding (SDC) Cognitive Research Version ([4]; Steady State): 67.4 |
| Cc1ccc(C(=O)C(C)CN2CCCCC2)cc1 (stereo not drawn) [Tolperisone, tolperisone] | did not differ significantly | non-significant | no significant effect | no increase | no significant increase | equivalent results | 0 | 1 | 0 | 1 | 1 | 1 | 0 | 5 | 0 | 1 | 0 | 15 | 3.5 | 4.0 | Reaction time on the divided attention test [1]: statistically significant improvement; Reaction time on the divided attention test ([1]; listed as Tol): significantly faster; Excessive Ay compared to placebo ([1]; in vivo): no significant increase; Lane Exceedance Maximum and Duration of Exceedance compared to placebo ([1]; in vivo): not seen; Speedings Count compared to placebo ([1]; in vivo): not significantly impacted; Speedings Ratio compared to placebo ([1]; in vivo): no significant effect; hangover effect the morning following nighttime dosing ([1]; in vivo): does not produce a hangover effect; majority of secondary driving endpoint measures compared to placebo ([1]; in vivo): no statistically significant difference; discontinuation due to AE ([2]; following the first day of dosing): one subject due to a moderate AE of a Crohn's Disease flare up; Karolinska Sleepiness Scale (KSS) ([3]; Steady State): 3.1; KSS self-reported sleepiness ([3]; any time-point): no significant increase; Symbol Digit Coding (SDC) Cognitive Research Version ([4]; Day 1 (at Tmax)): 66.6; Symbol Digit Coding (SDC) Cognitive Research Version ([4]; Next Day Residual): 69.3; Symbol Digit Coding (SDC) Cognitive Research Version ([4]; Steady State): 70.1 |
